{
  "source": "paper PMC7357169",
  "about": "“Blinded, Multicenter Evaluation of Drug-induced Changes in Contractility Using Human-induced Pluripotent Stem Cell-derived Cardiomyocytes” (Toxicological Sciences, 2020)",
  "key": {"R-PAT hiPSC-CMs": {"tested_on": "R-PAT hiPSC-CMs", "experiment": "CO:R-PAT contractility, refined conditions (RPMI-B27, slowed beat rate)", "assay_type": "cell-based, human", "conditions": "analysis of different stages of relaxation; platform taken from context (CO:R-PAT)", "description": "The hiPSC-CMs used were R-PAT (derived and differentiated in house as described previously) ([Mosqueira et al., 2018]; [Smith et al., 2018]), and iCell^2 and Pluricyte (purchased from Cellular Dynamics International and Ncardia). Manufacturer instructions were followed for the commercial hiPSC lines. For iCell^2, seeding was at 25 000 cells into each well of 96-well plates (Nunclon Delta Surface; Thermo, 167008) and then maintained for 10 days before use in drug evaluation studies. The same plates were used for R-PAT hiPSC-CMs, which were seeded at 40 000 cells/well and maintained until days 20 and 21 of differentiation before use. For Pluricyte hiPSC-CMs, seeding was at 35 000 cells into each well of 96-well plates (Greiner Bio-One; 655087) and then maintained for 8 days before use. […]\nhiPSC-CMs in 96-well plate were transiently loaded in 50 µl/well of SFM containing FluoVolt (1:200 part B, 1:2000 part A; Life Tech, F10488) for 20 min at 37°C and 5% CO2. […] Electrophysiology data were analyzed using CellOPTIQ proprietary software of Clyde Biosciences and were normalized to a maximum amplitude of 1 and minimum of 0 to standardize height for comparison of traces created in OriginPro (OriginLab version 7.5). Contractility data were analyzed based on pixel displacement using an ImageJ plug-in. […]"}, "hiPSC-CM EHTs": {"tested_on": "hiPSC-CM EHTs", "experiment": "EHT contractility with beat rate slowed by 300 nM ivabradine and electrical pacing 0.5-2.0 Hz", "assay_type": "cell-based, human", "conditions": "for CA response: EHTs with 300 nM ivabradine, paced, only at 0.5 and 0.7 Hz, sometimes at 1 Hz, never at 1.5 or 2 Hz, high concentration bolus", "method": "We extended these studies to the 3D EHT platform, this time slowing spontaneous beating to < 0.5 Hz with 300 nM ivabradine, a pharmacological blocker of the “funny” If current ([Bois et al., 1996]). […] Whereas force-frequency relationships was negative above 1.5 Hz, it was positive between 0.5 and 1.5 Hz, evidenced by a 147% increase in force generation concurrent with significant shortening of CT and RT (Supplementary Figure 6). We therefore re-evaluated 6 of the PIs in the presence of 300 nM ivabradine with electrical pacing at 0.5, 0.7, 1.0, 1.5, and 2.0 Hz. These also included epinephrine, levosimendan, and pimobendan, which had been incorrectly predicted by EHT:R-PAT and/or EHT:ERC platform-cell combinations. […] Thus, in both 2D and 3D configurations, lower beating frequencies led to increased predictivity for PIs.\nFigure 5. Slowed beat rate increases the predictivity of positive inotropes (PIs) in 3D engineered heart tissues (EHTs). Contraction analysis was carried out using EHTs with 6 of the PIs from the drug test set: epinephrine (Epi), forskolin (For), levosimendan (Lev), pimobendan (Pim), dobutamine (Dob), and milrinone (Mil) which had been predicted with variable accuracy (Figure 4A, web tool). […] Scatter plots show percentage changes relative to baseline at respective frequency. Averaged peaks for force are shown for baseline (BL, black peaks) versus after treatment in EHTs paced at 0.5 Hz (blue peaks) or 2.0 Hz (red peaks). Dunnett’s stats versus baseline at respective frequency: *p < .05; **p < .01; ***p < .001; ****p < .0001.\nSupplementary Figure 6. Positive force frequency relationship in EHTs paced between 0.5 and 1.5 Hz. Spontaneous beat rate of EHTs was reduced by 3 hour pre-treatment with 300 nM ivabradine, an If current inhibitor. […] CA increased from 0.5 to 1.5 Hz but plateaued and declined at higher frequencies. These changes were reflected in the CT and RT data. Dunnett's stats vs vehicle control: *, P<0.05; **, P<0.01; ***, P<0.001; ****, P<0.0001."}, "cardiac contractility": {"tested_on": "cardiac contractility", "conditions": "cited from earlier work; for EC50: read-out: Expected effect on contractility in isolated cardiomyocytes/heart muscles, EC50; for NIE: ref (Perez et al. 1995), (Boldt et al. 2010), (Bois et al. 1996), (Mesirca et al. 2014), (Choi et al. 2016)"}, "[1]": {"conditions": "cited from earlier work; for FTPC: free therapeutic plasma concentration, Refs of Supplementary Table 1; for FPTC (free plasma therapeutic concentration): ref Supplementary Table 1"}, "[2]": {"tested_on": "adult rabbit ventricular cardiomyocytes", "experiment": "CellOPTIQ (CO) contractility, adult rabbit ventricular cardiomyocytes", "assay_type": "cell-based", "conditions": "isolated rabbit myocytes; not reported in any hiPSC-CM platform", "method": "Hearts were removed and perfused retrogradely at 25 ml⋅min^−1 (37°C) with a modified KH solution containing 0.75 mmol/l [Ca^2+] for 5 min, followed by a nominally Ca^2+-free KH solution with 0.1 mmol/l EGTA for 5 min. Hearts were then perfused with KH solution containing 0.24 mmol/l [Ca^2+], 1 mg/ml collagenase (type I), and 0.06 mg/ml protease (type XIV). After approximately 4–5 min, enzyme was removed and the left ventricular free wall was then cut into strips in the recirculated enzyme solution containing 1% bovine serum albumin before being mixed to yield a single cell suspension. Cells were maintained in either Ca^2+-free KH solution or 1 mmol/l Ca^2+ (via stepwise increments) until use. Intact cardiomyocytes in 1.8 mmol/l modified Ca^2+ KH solution were loaded with FluoVolt (Thermo Fisher Scientific) at 1:3000 dilution for 10 min. The incubation medium was removed and the cells resuspended in a modified KH solution.\nCardiomyocytes were allowed to settle on a coverslip in a bath (35 mm petri-dish) at 37°C. […] A parallel set of vehicle (DMSO) time control experiments were also performed FluoVolt fluorescence (490 nm excitation) was measured at a sampling rate of 10 KHz, whereas the image was recorded on a CCD camera at 100 Hz frame rate using > 700 nm light. […]"}, "heart": {"tested_on": "heart", "parameters": "method as in Refs column of Supplementary Table 1", "conditions": "Refs of Supplementary Table 1; cited from earlier work"}, "PDE3": {"tested_on": "PDE3", "parameters": "method as in Refs column of Supplementary Table 1", "conditions": "Refs of Supplementary Table 1; read-out: PDE3 inhibitor IC50; cited from earlier work"}, "hiPSC-CMs": {"tested_on": "hiPSC-CMs", "parameters": "method as in Zhao et al., 2019", "conditions": "hiPSC-CMs under loaded conditions; ref Zhao et al., 2019; cited from earlier work"}, "[3]": {"conditions": "isolated cardiomyocytes/heart muscles, Refs of Supplementary Table 1"}},
  "note": "Read-outs that look alike come from different tables or passages of the source.",
  "data": [
    {"smiles": "CC(CCc1ccc(O)cc1)NCCc1ccc(O)c(O)c1", "note": "(centres unmarked) [Dobutamine]", "values": [
      {"measurement": "relaxation analysis at 50% relaxation", "setting": "R-PAT hiPSC-CMs", "result": "positive lusitropy"},
      {"measurement": "CA response", "setting": "hiPSC-CM EHTs", "result": "increased contraction amplitude"},
      {"measurement": "EC50", "setting": "cardiac contractility; [3]", "result": "1000 to 3000", "unit": "nM"},
      {"measurement": "FTPC", "setting": "[1]", "result": "0.07 to 1", "unit": "µM"},
      {"measurement": "FPTC (free plasma therapeutic concentration)", "setting": "[1]", "result": "0.07 to 1", "unit": "µM"}
    ]},
    {"smiles": "C=C[C@@]1(C)CC(=O)[C@]2(O)[C@@]3(C)[C@@H](O)CCC(C)(C)[C@@H]3[C@H](O)[C@H](OC(C)=O)[C@@]2(C)O1", "note": "[Forskolin]", "values": [
      {"measurement": "spontaneous diastolic SR Ca2+ release", "setting": "[2]", "result": "spontaneous diastolic Ca^2+ release and associated diastolic shortening was observed"},
      {"measurement": "CA response", "setting": "hiPSC-CM EHTs", "result": "increased contraction amplitude"},
      {"measurement": "EC50", "setting": "cardiac contractility; [3]", "result": "5000 to 10000", "unit": "nM"},
      {"measurement": "Expected cardiac effects in vivo", "setting": "heart", "result": "PI, PC"},
      {"measurement": "FTPC", "setting": "[1]", "result": "0.012 to 0.024", "unit": "µM"},
      {"measurement": "FPTC (free plasma therapeutic concentration)", "setting": "[1]", "result": "0.012 to 0.024", "unit": "µM"}
    ]},
    {"smiles": "COc1cc2c(cc1OC)CC(=O)N(CCCN(C)C[C@H]1Cc3cc(OC)c(OC)cc31)CC2", "note": "[Ivabradine]", "values": [
      {"measurement": "relaxation analysis at 80% relaxation", "setting": "R-PAT hiPSC-CMs", "result": "late relaxation deficit"},
      {"measurement": "spontaneous beating of EHTs", "setting": "hiPSC-CM EHTs; 300 nM ivabradine", "result": "< 0.5", "unit": "Hz"},
      {"measurement": "NIE", "setting": "cardiac contractility; guinea pig PM, at 100 µM", "result": -60, "unit": "%"},
      {"measurement": "NIE", "setting": "cardiac contractility; guinea pig atria, at 100 µM", "result": -13, "unit": "%"},
      {"measurement": "NIE", "setting": "cardiac contractility; human trabeculae at 100 µM", "result": -38, "unit": "%"},
      {"measurement": "Expected effect on contractility in isolated cardiomyocytes/heart muscles", "setting": "cardiac contractility; [3]", "result": "None, NC at >10 µM (spontaneously beating preps), NIE (-13/-60% in guinea pig atria/PM, -38% human trabeculae at 100 µM); PI in mouse left atria and 30% of human trabeculae"},
      {"measurement": "FTPC", "setting": "[1]", "result": "0.01 to 0.1", "unit": "µM"},
      {"measurement": "FPTC (free plasma therapeutic concentration)", "setting": "[1]", "result": "0.01 to 0.1", "unit": "µM"}
    ]},
    {"smiles": "C[C@@H]1CC(=O)NN=C1c1ccc(NN=C(C#N)C#N)cc1", "note": "[Levosimendan]", "values": [
      {"measurement": "CA response", "setting": "hiPSC-CM EHTs", "result": "increased contraction amplitude"},
      {"measurement": "Expected effect on contractility in isolated cardiomyocytes/heart muscles", "setting": "cardiac contractility; [3]", "result": "Small PI (~50%), PC#, PCl+PL (14%)"},
      {"measurement": "PCl+PL", "setting": "cardiac contractility; [3]", "result": 14, "unit": "%"},
      {"measurement": "Small PI", "setting": "cardiac contractility; [3]", "result": "~50", "unit": "%"},
      {"measurement": "EC50", "setting": "cardiac contractility; [3]", "result": "~100", "unit": "nM"},
      {"measurement": "Expected cardiac effects in vivo", "setting": "heart", "result": "PI, PC (more heart rate increase and RR decrease than dobutamine)"},
      {"measurement": "IC50", "setting": "PDE3", "result": 25, "unit": "nM"},
      {"measurement": "FTPC", "setting": "[1]", "result": "0.026 to 0.35", "unit": "µM"},
      {"measurement": "FPTC (free plasma therapeutic concentration)", "setting": "[1]", "result": "0.026 to 0.35", "unit": "µM"}
    ]},
    {"smiles": "Cc1[nH]c(=O)c(C#N)cc1-c1ccncc1", "note": "[Milrinone]", "values": [
      {"measurement": "CA response", "setting": "hiPSC-CM EHTs", "result": "increased contraction amplitude"},
      {"measurement": "Expected effect on contractility in isolated cardiomyocytes/heart muscles", "setting": "cardiac contractility; [3]", "result": "Small PI, PC#, PCl, PL (smaller than ISO)"},
      {"measurement": "EC50", "setting": "cardiac contractility; [3]", "result": 60000, "unit": "nM"},
      {"measurement": "inotropy in Biowire II constructs", "setting": "hiPSC-CMs", "result": "positive inotropy"},
      {"measurement": "Expected cardiac effects in vivo", "setting": "heart", "result": "PI, PC (more heart rate increase and RR decrease than dobutamine)"},
      {"measurement": "FTPC", "setting": "[1]", "result": "0.1 to 0.15", "unit": "µM"},
      {"measurement": "FPTC (free plasma therapeutic concentration)", "setting": "[1]", "result": "0.1 to 0.15", "unit": "µM"}
    ]}
  ]
}
